Assays:
Details in all cases: Compound concentration 1.0 uM
[1] = biological target: Alpha-2B adrenergic receptor (Homo sapiens) (UniProt P18089); test: RLU of ADRA2B at 1.0 µM in the […] PRESTO-Tango GPCRome screen
[2] = biological target: Beta-3 adrenergic receptor (Homo sapiens) (UniProt P13945); test: RLU of ADRB3 at 1.0 µM in the […] PRESTO-Tango GPCRome screen
[3] = biological target: C-C chemokine receptor-like 2 (Homo sapiens) (UniProt O00421); test: RLU of CCRL2 at 1.0 µM in the […] PRESTO-Tango GPCRome screen
[4] = biological target: Cannabinoid receptor 1 (Homo sapiens) (UniProt P21554); test: RLU of CNR1 at 1.0 µM in the […] PRESTO-Tango GPCRome screen
Chain of Cannabinoid receptor 1 (Homo sapiens) (P21554 whole entry): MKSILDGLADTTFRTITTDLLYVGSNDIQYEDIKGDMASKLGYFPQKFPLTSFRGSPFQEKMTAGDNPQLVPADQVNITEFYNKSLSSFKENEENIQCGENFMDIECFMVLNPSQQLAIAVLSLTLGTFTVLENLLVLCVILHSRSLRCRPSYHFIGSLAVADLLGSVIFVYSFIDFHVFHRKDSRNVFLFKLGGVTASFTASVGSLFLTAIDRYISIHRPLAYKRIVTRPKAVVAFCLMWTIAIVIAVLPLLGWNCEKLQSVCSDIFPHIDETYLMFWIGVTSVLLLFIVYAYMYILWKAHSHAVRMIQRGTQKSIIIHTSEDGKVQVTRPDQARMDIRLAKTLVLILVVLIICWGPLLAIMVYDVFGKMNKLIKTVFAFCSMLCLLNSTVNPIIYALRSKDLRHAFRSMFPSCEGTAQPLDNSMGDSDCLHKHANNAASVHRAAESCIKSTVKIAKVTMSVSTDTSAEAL

[5] = biological target: Cannabinoid receptor 2 (Homo sapiens) (UniProt P34972); test: RLU of CNR2 at 1.0 µM in the […] PRESTO-Tango GPCRome screen
[6] = biological target: Corticotropin-releasing factor receptor 1 (Homo sapiens) (UniProt P34998); test: RLU of CRHR1 at 1.0 µM in the […] PRESTO-Tango GPCRome screen
[7] = biological target: D(2) dopamine receptor (Homo sapiens) (UniProt P14416); test: RLU of DRD2 at 1.0 µM in the […] PRESTO-Tango GPCRome screen
Chain of D(2) dopamine receptor (Homo sapiens) (P14416 whole entry): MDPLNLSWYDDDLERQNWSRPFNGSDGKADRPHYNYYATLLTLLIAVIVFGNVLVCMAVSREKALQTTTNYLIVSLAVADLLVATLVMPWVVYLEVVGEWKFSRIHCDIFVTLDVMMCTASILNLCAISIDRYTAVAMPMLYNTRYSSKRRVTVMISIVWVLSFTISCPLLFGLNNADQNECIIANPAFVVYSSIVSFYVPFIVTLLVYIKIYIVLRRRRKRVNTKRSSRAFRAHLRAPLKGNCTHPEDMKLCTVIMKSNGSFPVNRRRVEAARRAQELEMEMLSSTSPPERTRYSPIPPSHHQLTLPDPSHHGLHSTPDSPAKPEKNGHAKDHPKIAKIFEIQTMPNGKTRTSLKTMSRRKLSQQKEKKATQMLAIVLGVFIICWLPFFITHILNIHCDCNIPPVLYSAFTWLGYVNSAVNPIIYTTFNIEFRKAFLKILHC

[8] = biological target: Proteinase-activated receptor 3 (Homo sapiens) (UniProt O00254); test: RLU of F2RL2 at 1.0 µM in the […] PRESTO-Tango GPCRome screen
Chain of Proteinase-activated receptor 3 (Homo sapiens) (O00254 whole entry): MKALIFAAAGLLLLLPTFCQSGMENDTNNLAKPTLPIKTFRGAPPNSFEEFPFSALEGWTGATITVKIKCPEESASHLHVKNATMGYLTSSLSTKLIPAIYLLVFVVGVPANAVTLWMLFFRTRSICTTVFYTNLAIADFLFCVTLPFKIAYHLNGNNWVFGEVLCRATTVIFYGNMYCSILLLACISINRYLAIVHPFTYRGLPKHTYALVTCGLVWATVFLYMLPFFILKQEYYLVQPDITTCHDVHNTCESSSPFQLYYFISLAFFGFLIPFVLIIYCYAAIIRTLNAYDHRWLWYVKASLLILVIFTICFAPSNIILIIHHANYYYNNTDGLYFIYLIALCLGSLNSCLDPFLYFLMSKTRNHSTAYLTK

[9] = biological target: N-formyl peptide receptor 2 (Homo sapiens) (UniProt P25090); test: RLU of FPR2 at 1.0 µM in the […] PRESTO-Tango GPCRome screen
Chain of N-formyl peptide receptor 2 (Homo sapiens) (P25090 whole entry): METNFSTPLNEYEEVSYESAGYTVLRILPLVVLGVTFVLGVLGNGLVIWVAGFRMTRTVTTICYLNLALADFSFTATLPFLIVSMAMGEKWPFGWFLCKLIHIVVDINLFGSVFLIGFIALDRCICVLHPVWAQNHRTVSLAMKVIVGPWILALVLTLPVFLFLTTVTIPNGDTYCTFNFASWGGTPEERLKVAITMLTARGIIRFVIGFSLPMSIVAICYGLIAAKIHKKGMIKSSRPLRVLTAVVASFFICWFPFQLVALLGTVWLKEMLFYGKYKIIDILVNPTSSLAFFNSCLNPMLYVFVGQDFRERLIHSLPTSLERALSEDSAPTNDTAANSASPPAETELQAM

[10] = biological target: Follicle-stimulating hormone receptor (Homo sapiens) (UniProt P23945); test: RLU of FSHR at 1.0 µM in the […] PRESTO-Tango GPCRome screen
[11] = biological target: Probable G-protein coupled receptor 132 (Homo sapiens) (UniProt Q9UNW8); test: RLU of G2A at 1.0 µM in the […] PRESTO-Tango GPCRome screen
[12] = biological target: Gastric inhibitory polypeptide receptor (Homo sapiens) (UniProt P48546); test: RLU of GIPR at 1.0 µM in the […] PRESTO-Tango GPCRome screen
[13] = biological target: Free fatty acid receptor 4 (Homo sapiens) (UniProt Q5NUL3); test: RLU of GPR120 at 1.0 µM in the […] PRESTO-Tango GPCRome screen
[14] = biological target: Adhesion G protein-coupled receptor A1 (Homo sapiens) (UniProt Q86SQ6); test: RLU of GPR123 at 1.0 µM in the […] PRESTO-Tango GPCRome screen
[15] = biological target: Adhesion G-protein coupled receptor D1 (Homo sapiens) (UniProt Q6QNK2); test: RLU of GPR133 at 1.0 µM in the […] PRESTO-Tango GPCRome screen
[16] = biological target: Probable G-protein coupled receptor 142 (Homo sapiens) (UniProt Q7Z601); test: RLU of GPR142 at 1.0 µM in the […] PRESTO-Tango GPCRome screen
Chain of Probable G-protein coupled receptor 142 (Homo sapiens) (Q7Z601 whole entry): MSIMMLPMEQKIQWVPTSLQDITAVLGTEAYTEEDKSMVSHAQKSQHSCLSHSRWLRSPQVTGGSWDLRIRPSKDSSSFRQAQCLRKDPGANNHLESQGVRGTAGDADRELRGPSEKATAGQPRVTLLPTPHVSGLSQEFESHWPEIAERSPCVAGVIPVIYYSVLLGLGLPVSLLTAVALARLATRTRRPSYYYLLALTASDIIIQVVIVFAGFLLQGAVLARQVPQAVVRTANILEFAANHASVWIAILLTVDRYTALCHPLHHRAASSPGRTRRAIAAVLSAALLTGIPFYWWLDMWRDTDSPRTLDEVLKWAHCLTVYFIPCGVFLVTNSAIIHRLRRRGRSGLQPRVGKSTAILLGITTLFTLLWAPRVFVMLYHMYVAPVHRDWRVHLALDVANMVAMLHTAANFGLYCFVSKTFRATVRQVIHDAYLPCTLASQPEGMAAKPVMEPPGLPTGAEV

[17] = biological target: Probable G-protein coupled receptor 150 (Homo sapiens) (UniProt Q8NGU9); test: RLU of GPR150 at 1.0 µM in the […] PRESTO-Tango GPCRome screen
[18] = biological target: Probable G-protein coupled receptor 153 (Homo sapiens) (UniProt Q6NV75); test: RLU of GPR153 at 1.0 µM in the […] PRESTO-Tango GPCRome screen
[19] = biological target: G-protein coupled receptor 183 (Homo sapiens) (UniProt P32249); test: RLU of GPR183 at 1.0 µM in the […] PRESTO-Tango GPCRome screen
Chain of G-protein coupled receptor 183 (Homo sapiens) (P32249 whole entry): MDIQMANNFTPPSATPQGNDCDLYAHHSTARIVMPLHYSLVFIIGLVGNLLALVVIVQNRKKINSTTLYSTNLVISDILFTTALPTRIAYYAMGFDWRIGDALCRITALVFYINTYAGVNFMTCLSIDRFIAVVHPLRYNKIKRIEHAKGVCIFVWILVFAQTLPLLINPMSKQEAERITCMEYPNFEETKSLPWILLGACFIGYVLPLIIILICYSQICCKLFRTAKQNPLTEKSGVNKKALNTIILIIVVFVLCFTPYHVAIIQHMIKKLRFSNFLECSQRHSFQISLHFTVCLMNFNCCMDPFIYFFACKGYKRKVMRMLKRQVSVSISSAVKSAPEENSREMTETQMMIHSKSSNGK

[20] = biological target: 12-(S)-hydroxy-5,8,10,14-eicosatetraenoic acid receptor (Homo sapiens) (UniProt O00270); test: RLU of GPR31 at 1.0 µM in the […] PRESTO-Tango GPCRome screen
[21] = biological target: Probable G-protein coupled receptor 32 (Homo sapiens) (UniProt O75388); test: RLU of GPR32 at 1.0 µM in the […] PRESTO-Tango GPCRome screen
[22] = biological target: G-protein coupled receptor 35 (Homo sapiens) (UniProt Q9HC97); test: RLU of GPR35 at 1.0 µM in the […] PRESTO-Tango GPCRome screen
[23] = biological target: G-protein coupled receptor 62 (Homo sapiens) (UniProt Q9BZJ7); test: RLU of GPR62 at 1.0 µM in the […] PRESTO-Tango GPCRome screen
[24] = biological target: Probable G-protein coupled receptor 75 (Homo sapiens) (UniProt O95800); test: RLU of GPR75 at 1.0 µM in the […] PRESTO-Tango GPCRome screen
[25] = biological target: G-protein coupled receptor family C group 5 member B (Homo sapiens) (UniProt Q9NZH0); test: RLU of GPRC5B at 1.0 µM in the […] PRESTO-Tango GPCRome screen
[26] = biological target: Lysophosphatidic acid receptor 1 (Homo sapiens) (UniProt Q92633); test: RLU of LPAR1 at 1.0 µM in the […] PRESTO-Tango GPCRome screen
[27] = biological target: Lysophosphatidic acid receptor 6 (Homo sapiens) (UniProt P43657); test: RLU of LPAR6 at 1.0 µM in the […] PRESTO-Tango GPCRome screen
Chain of Lysophosphatidic acid receptor 6 (Homo sapiens) (P43657 whole entry): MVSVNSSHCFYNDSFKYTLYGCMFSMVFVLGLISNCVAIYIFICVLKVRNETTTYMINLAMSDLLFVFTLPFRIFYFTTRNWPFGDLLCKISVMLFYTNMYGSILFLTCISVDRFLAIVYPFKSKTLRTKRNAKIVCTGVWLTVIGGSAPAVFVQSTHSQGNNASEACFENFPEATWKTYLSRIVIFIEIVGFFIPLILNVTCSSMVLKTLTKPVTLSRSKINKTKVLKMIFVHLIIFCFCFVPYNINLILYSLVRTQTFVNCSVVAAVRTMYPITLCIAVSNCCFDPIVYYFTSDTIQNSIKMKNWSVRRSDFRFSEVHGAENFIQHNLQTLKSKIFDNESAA

[28] = biological target: Melanin-concentrating hormone receptor 1 (Homo sapiens) (UniProt Q99705); test: RLU of MCHR1 at 1.0 µM in the […] PRESTO-Tango GPCRome screen
Chain of Melanin-concentrating hormone receptor 1 (Homo sapiens) (Q99705 whole entry): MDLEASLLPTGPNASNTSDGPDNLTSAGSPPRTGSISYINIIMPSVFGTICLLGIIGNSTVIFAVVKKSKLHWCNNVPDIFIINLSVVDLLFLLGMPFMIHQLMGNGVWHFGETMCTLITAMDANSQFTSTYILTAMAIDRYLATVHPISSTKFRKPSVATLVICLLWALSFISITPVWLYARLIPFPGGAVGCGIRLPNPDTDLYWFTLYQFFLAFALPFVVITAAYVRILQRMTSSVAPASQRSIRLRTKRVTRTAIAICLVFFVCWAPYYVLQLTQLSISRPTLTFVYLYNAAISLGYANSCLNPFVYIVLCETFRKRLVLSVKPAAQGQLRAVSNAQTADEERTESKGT

[29] = biological target: Mas-related G-protein coupled receptor member D (Homo sapiens) (UniProt Q8TDS7); test: RLU of MRGPRD at 1.0 µM in the […] PRESTO-Tango GPCRome screen
Chain of Mas-related G-protein coupled receptor member D (Homo sapiens) (Q8TDS7 whole entry): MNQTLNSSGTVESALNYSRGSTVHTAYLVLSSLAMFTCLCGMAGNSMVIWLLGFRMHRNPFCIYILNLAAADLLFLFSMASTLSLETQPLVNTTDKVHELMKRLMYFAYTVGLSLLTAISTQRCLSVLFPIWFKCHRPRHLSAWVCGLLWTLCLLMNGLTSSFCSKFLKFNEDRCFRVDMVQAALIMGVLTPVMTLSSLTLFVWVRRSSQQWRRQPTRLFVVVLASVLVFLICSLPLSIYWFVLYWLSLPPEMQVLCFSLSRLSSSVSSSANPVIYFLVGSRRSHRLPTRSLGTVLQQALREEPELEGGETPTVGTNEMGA

[30] = biological target: Neuropeptides B/W receptor type 2 (Homo sapiens) (UniProt P48146); test: RLU of NPBW2 at 1.0 µM in the […] PRESTO-Tango GPCRome screen
[31] = biological target: Opsin-5 (Homo sapiens) (UniProt Q6U736); test: RLU of OPN5 at 1.0 µM in the […] PRESTO-Tango GPCRome screen
[32] = biological target: P2Y purinoceptor 1 (Homo sapiens) (UniProt P47900); test: RLU of P2RY1 at 1.0 µM in the […] PRESTO-Tango GPCRome screen
Chain of P2Y purinoceptor 1 (Homo sapiens) (P47900 whole entry): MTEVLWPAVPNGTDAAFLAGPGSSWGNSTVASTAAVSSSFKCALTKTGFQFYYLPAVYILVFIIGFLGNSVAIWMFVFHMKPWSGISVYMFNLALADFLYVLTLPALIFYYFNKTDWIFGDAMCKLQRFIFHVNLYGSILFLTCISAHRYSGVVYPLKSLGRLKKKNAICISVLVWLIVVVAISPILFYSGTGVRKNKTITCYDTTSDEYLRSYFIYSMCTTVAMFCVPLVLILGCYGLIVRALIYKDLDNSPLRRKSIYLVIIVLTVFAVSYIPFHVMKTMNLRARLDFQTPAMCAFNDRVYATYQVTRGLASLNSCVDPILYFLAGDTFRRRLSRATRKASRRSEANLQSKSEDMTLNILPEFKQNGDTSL

[33] = biological target: Prostacyclin receptor (Homo sapiens) (UniProt P43119); test: RLU of PTGIR at 1.0 µM in the […] PRESTO-Tango GPCRome screen
[34] = biological target: Relaxin-3 receptor 2 (Homo sapiens) (UniProt Q8TDU9); test: RLU of RXFP4 at 1.0 µM in the […] PRESTO-Tango GPCRome screen
Chain of Relaxin-3 receptor 2 (Homo sapiens) (Q8TDU9 whole entry): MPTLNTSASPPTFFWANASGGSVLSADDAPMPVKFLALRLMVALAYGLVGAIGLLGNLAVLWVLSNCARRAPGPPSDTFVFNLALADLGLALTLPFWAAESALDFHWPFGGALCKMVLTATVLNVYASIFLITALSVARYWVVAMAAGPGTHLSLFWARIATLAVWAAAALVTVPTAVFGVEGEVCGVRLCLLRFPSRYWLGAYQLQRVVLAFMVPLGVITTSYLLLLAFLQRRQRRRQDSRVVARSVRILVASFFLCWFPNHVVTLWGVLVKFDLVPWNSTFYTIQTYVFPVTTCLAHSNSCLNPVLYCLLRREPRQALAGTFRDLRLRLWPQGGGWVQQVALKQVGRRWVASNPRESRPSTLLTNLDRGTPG

[35] = biological target: Substance-K receptor (Homo sapiens) (UniProt P21452); test: RLU of TACR2 at 1.0 µM in the […] PRESTO-Tango GPCRome screen

Chain of Beta-3 adrenergic receptor (Homo sapiens) (P13945 whole entry, looked up): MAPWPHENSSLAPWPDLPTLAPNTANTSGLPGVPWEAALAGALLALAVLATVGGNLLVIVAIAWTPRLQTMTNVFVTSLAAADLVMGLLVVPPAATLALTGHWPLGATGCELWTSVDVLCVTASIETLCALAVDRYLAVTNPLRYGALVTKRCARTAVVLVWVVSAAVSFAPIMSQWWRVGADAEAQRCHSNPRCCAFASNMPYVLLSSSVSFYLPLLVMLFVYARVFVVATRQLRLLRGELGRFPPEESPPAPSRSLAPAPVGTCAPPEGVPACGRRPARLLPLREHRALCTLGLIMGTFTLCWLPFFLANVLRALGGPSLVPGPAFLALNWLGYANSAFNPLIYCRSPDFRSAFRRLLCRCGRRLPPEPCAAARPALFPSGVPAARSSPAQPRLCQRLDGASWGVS

Molecule `CCCCC(=O)N1CC2(C1)CN(c1ccccc1-c1nnn[nH]1)C2` has an RLU [1] of 17900, an RLU [2] of 12400 and an RLU [3] of -1900. For the same molecule, the RLU [4] was -5260, the RLU [5] was 4360 and the RLU [6] was 5080. It also gave an RLU [7] of 2200, an RLU [8] of 463 and an RLU [9] of 31.8. For the same molecule, the RLU [10] was -865, the RLU [11] was -2780 and the RLU [12] was -1500. For the same molecule, the RLU [13] was 1030, the RLU [14] was 2100 and the RLU [15] was -2660. For the same molecule, the RLU [16] was 2920, the RLU [17] was -1600 and the RLU [18] was -4690. The RLU [19] was -6100, the RLU [20] was 1300 and the RLU [21] was 5660. For the same molecule, the RLU [22] was 2600, the RLU [23] was 477000 and the RLU [24] was 868. The RLU [25] was -3640, the RLU [26] was 280 and the RLU [27] was -7370. The RLU [28] was 5930, the RLU [29] was -630 and the RLU [30] was -872. For the same molecule, the RLU [31] was 4000, the RLU [32] was 1690 and the RLU [33] was -408. The RLU [34] was 68.6 and the RLU [35] was -238.

Reference: ChEMBL document CHEMBL5723582, “Data for DCP probe T-10430” (2024)
